# Results published in patent US8772446B2, “Bifunctional chelating agents” (Nordion (Canada) Inc., priority 2010, dated 2014).
# Key:
# [1] = Solution thermodynamics: formation constants (log KML) and pM of Ga(III) complexes, potentiometric titration; type: physicochemical; conditions: Ga(III) complex; ligand-ligand competition with EDTA, potentiometric titration, 25 °C, 0.16 M NaCl
# Procedure: A more relevant indicator of the extent to which a metal complex is formed in solution is given by pM (−log free M) which considers the influence of ligand basicity and chelate hydrolysis.
# Carbonate-free solutions of the titrant, NaOH, were prepared by dilution of 50% solution (Acros Organics) with freshly boiled MQ water under a stream of purified nitrogen gas. The solution was standardized with potassium acid phthalate and the extent of carbonate accumulation was periodically checked by titration with a standard hydrochloric acid solution and determination of the corresponding Gran titration plot.^47 Gallium ion solutions were prepared by dilution of the appropriate atomic absorption (AA) standard. The exact amount of acid present in the gallium standard was determined by titration of an equimolar solution of Ga and Na2H2EDTA. The amount of acid present was determined by Gran's method.^47
# Data were collected in triplicate using PC Control (Version 6.0.91, Metrohm). The titration apparatus consisted of a 10 mL water jacketed glass vessel maintained at 25.0±0.1° C. (Julabo waterbath). Prior to and during the course of the titration, a blanket of nitrogen, passed through 10% NaOH to exclude any CO2, was maintained over the sample solution. The ionic strength was maintained at 0.16 M using NaCl. Prior to each potentiometric equilibrium study, the electrode was calibrated using standard HCl solutions. Calibration data were analysed by standard computer treatment provided within the program MacCalib to obtain the calibration parameters E0 and pKw.
# As the degree of formation of Ga(III) complexes at low pH (<2) was too high for the determination of stability constants by use of direct potentiometry, the ligand-ligand competition method using Na2H2EDTA was also performed.
# [2] = Serum stability studies done in vitro (^67Ga); type: in vitro ADME
# [3] = Biodistribution in female ICR mice; type: in vivo
# Procedure: The protocol used in the animal studies was approved by the Institutional Animal Care Committee of the University of British Columbia and was performed in accordance with the Canadian Council on Animal Care Guidelines. A total of 16 female ICR (20-30 g) mice were used for the animal study of each of the three compounds. ^67Ga(dedpa)^+, ^67Ga(66)^+, or ^67Ga(69)^+ was prepared as described above and then diluted in phosphate buffered saline to a concentration of 100 μCi/mL. Each mouse was i.v. injected with ˜10 μCi (100 μL) of the ^67Ga complex and then sacrificed by CO2 inhalation at 30 min, 1 h, 2 h, or 4 h after injection (n=4 at each time point). Blood was collected by cardiac puncture and plasma was separated from whole blood by centrifuging (2500 rpm, 15 min). Urine was collected from the bladder. Tissues collected included kidney, liver, spleen, femur, muscle, heart, lung, intestine and brain. Tissues were weighed and counted on a gamma counter and the counts were converted to % injected dose/gram (% ID/g). Tables 4-6 show the biodistibution data of ^67Ga(dedpa)^+, ^67Ga(66)^+ and ^67Ga(69)^+, respectively, in female ICR mice. FIG. 4 illustrates biodistribution over 4 h of ^67Ga(dedpa)^+ in female ICR mice, and FIG. 5 illustrates biodistribution of ^67Ga(66)^+ (upper) and ^67Ga(69)^+ (lower) in female ICR mice over 4 h; complete data for urine are shown also in separate diagrams to the right.
# human apo-transferrin = human apo-transferrin (Homo sapiens, UniProt P02787); experiment: ^67Ga complex stability: 2-h competition with excess human apo-transferrin, HPLC; conditions: ^67Ga complex, up to 2 h
# Sequence of human apo-transferrin (P02787 20-698): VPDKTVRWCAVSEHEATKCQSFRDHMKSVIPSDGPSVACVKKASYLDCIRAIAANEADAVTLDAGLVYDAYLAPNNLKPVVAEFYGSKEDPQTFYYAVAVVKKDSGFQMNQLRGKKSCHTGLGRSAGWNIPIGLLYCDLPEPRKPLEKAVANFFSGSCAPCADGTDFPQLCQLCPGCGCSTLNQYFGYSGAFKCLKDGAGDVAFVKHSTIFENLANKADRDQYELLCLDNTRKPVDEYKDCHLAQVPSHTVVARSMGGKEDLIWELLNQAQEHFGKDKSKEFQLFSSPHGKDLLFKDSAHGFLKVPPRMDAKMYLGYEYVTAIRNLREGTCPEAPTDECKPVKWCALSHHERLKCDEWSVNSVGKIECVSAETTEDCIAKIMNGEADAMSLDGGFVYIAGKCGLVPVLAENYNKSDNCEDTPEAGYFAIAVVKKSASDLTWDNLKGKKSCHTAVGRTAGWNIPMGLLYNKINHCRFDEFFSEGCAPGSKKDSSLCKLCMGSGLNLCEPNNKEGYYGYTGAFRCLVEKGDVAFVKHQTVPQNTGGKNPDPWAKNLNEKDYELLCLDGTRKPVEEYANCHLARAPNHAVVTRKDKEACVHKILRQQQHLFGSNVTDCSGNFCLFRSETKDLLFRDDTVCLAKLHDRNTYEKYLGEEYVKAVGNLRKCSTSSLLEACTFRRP
# Procedure: FIG. 13 illustrates stacked labelling traces of ^67Ga(dedpa)^+ of 2 h stability experiment against apo-transferrin (gradient: A: NaOAc buffer, pH 4.5, B: MeOH. 0-100% B linear gradient 20 min).
structure (smiles),measurement,setting,value
"O=C(O)c1cccc(CNCCNCc2cccc(C(=O)O)n2)n1 [^67Ga(dedpa)^+, metal not drawn]",log KML,[1],28.11(8)
same,Serum stability in vitro (in words),[2],stable to transchelation by serum proteins
same,"Biodistribution, Brain, 30 min","[3]; Brain, 30 min after i.v. injection, mean ± SD, 4 animals",0.264 ± 0.132 % ID/g
same,"Biodistribution, Brain, 1 h","[3]; Brain, 1 h after i.v. injection, mean ± SD, 4 animals",0.246 ± 0.123 % ID/g
same,"Biodistribution, Brain, 2 h","[3]; Brain, 2 h after i.v. injection, mean ± SD, 4 animals",0.213 ± 0.106 % ID/g
same,"Biodistribution, Brain, 4 h","[3]; Brain, 4 h after i.v. injection, mean ± SD, 4 animals",0.139 ± 0.069 % ID/g
same,"Biodistribution, Femur, 30 min","[3]; Femur, 30 min after i.v. injection, mean ± SD, 4 animals",2.180 ± 1.090 % ID/g
same,"Biodistribution, Femur, 1 h","[3]; Femur, 1 h after i.v. injection, mean ± SD, 4 animals",2.136 ± 1.068 % ID/g
same,"Biodistribution, Femur, 2 h","[3]; Femur, 2 h after i.v. injection, mean ± SD, 4 animals",1.893 ± 0.946 % ID/g
same,"Biodistribution, Femur, 4 h","[3]; Femur, 4 h after i.v. injection, mean ± SD, 4 animals",2.218 ± 1.109 % ID/g
same,"Biodistribution, Heart, 30 min","[3]; Heart, 30 min after i.v. injection, mean ± SD, 4 animals",2.645 ± 1.323 % ID/g
same,"Biodistribution, Heart, 1 h","[3]; Heart, 1 h after i.v. injection, mean ± SD, 4 animals",2.490 ± 1.245 % ID/g
same,"Biodistribution, Heart, 2 h","[3]; Heart, 2 h after i.v. injection, mean ± SD, 4 animals",2.412 ± 1.206 % ID/g
same,"Biodistribution, Heart, 4 h","[3]; Heart, 4 h after i.v. injection, mean ± SD, 4 animals",2.004 ± 1.002 % ID/g
same,"Biodistribution, Intestine, 30 min","[3]; Intestine, 30 min after i.v. injection, mean ± SD, 4 animals",2.099 ± 1.050 % ID/g
same,"Biodistribution, Intestine, 1 h","[3]; Intestine, 1 h after i.v. injection, mean ± SD, 4 animals",2.123 ± 1.062 % ID/g
same,"Biodistribution, Intestine, 2 h","[3]; Intestine, 2 h after i.v. injection, mean ± SD, 4 animals",1.995 ± 0.998 % ID/g
same,"Biodistribution, Intestine, 4 h","[3]; Intestine, 4 h after i.v. injection, mean ± SD, 4 animals",1.990 ± 0.995 % ID/g
same,"Biodistribution, Kidney, 30 min","[3]; Kidney, 30 min after i.v. injection, mean ± SD, 4 animals",8.089 ± 4.009 % ID/g
same,"Biodistribution, Kidney, 1 h","[3]; Kidney, 1 h after i.v. injection, mean ± SD, 4 animals",7.827 ± 3.914 % ID/g
same,"Biodistribution, Kidney, 2 h","[3]; Kidney, 2 h after i.v. injection, mean ± SD, 4 animals",9.149 ± 4.575 % ID/g
same,"Biodistribution, Kidney, 4 h","[3]; Kidney, 4 h after i.v. injection, mean ± SD, 4 animals",8.301 ± 4.150 % ID/g
same,"Biodistribution, Liver, 30 min","[3]; Liver, 30 min after i.v. injection, mean ± SD, 4 animals",3.702 ± 1.851 % ID/g
same,"Biodistribution, Liver, 1 h","[3]; Liver, 1 h after i.v. injection, mean ± SD, 4 animals",3.695 ± 1.847 % ID/g
same,"Biodistribution, Liver, 2 h","[3]; Liver, 2 h after i.v. injection, mean ± SD, 4 animals",3.173 ± 1.586 % ID/g
same,"Biodistribution, Liver, 4 h","[3]; Liver, 4 h after i.v. injection, mean ± SD, 4 animals",2.736 ± 1.368 % ID/g
same,"Biodistribution, Lung, 30 min","[3]; Lung, 30 min after i.v. injection, mean ± SD, 4 animals",4.878 ± 2.439 % ID/g
same,"Biodistribution, Lung, 1 h","[3]; Lung, 1 h after i.v. injection, mean ± SD, 4 animals",4.896 ± 2.448 % ID/g
same,"Biodistribution, Lung, 2 h","[3]; Lung, 2 h after i.v. injection, mean ± SD, 4 animals",4.846 ± 2.423 % ID/g
same,"Biodistribution, Lung, 4 h","[3]; Lung, 4 h after i.v. injection, mean ± SD, 4 animals",3.260 ± 1.630 % ID/g
same,"Biodistribution, Muscle, 30 min","[3]; Muscle, 30 min after i.v. injection, mean ± SD, 4 animals",1.210 ± 0.605 % ID/g
same,"Biodistribution, Muscle, 1 h","[3]; Muscle, 1 h after i.v. injection, mean ± SD, 4 animals",1.153 ± 0.576 % ID/g
same,"Biodistribution, Muscle, 2 h","[3]; Muscle, 2 h after i.v. injection, mean ± SD, 4 animals",1.092 ± 0.546 % ID/g
same,"Biodistribution, Muscle, 4 h","[3]; Muscle, 4 h after i.v. injection, mean ± SD, 4 animals",1.127 ± 0.564 % ID/g
same,"Biodistribution, Serum, 30 min","[3]; Serum, 30 min after i.v. injection, mean ± SD, 4 animals",16.067 ± 8.033 % ID/g
same,"Biodistribution, Serum, 1 h","[3]; Serum, 1 h after i.v. injection, mean ± SD, 4 animals",9.047 ± 4.524 % ID/g
same,"Biodistribution, Serum, 2 h","[3]; Serum, 2 h after i.v. injection, mean ± SD, 4 animals",12.042 ± 6.021 % ID/g
same,"Biodistribution, Serum, 4 h","[3]; Serum, 4 h after i.v. injection, mean ± SD, 4 animals",12.235 ± 6.118 % ID/g
same,"Biodistribution, Spleen, 30 min","[3]; Spleen, 30 min after i.v. injection, mean ± SD, 4 animals",1.366 ± 0.683 % ID/g
same,"Biodistribution, Spleen, 1 h","[3]; Spleen, 1 h after i.v. injection, mean ± SD, 4 animals",1.357 ± 0.679 % ID/g
same,"Biodistribution, Spleen, 2 h","[3]; Spleen, 2 h after i.v. injection, mean ± SD, 4 animals",1.273 ± 0.637 % ID/g
same,"Biodistribution, Spleen, 4 h","[3]; Spleen, 4 h after i.v. injection, mean ± SD, 4 animals",0.989 ± 0.495 % ID/g
same,Excretion route (in words),"[3]; mice, i.v.",excreted mainly through the kidneys
same,"Time to clearance from background tissue, such as muscle","[3]; mice, i.v.",≤ 30 min
same,Bone uptake (in words),"[3]; mice, i.v., indicator for complex stability",low uptake in bone
same,Complex stability against apo-transferrin (in words),human apo-transferrin; listed as 67/68Ga(dedpa)^+,No decomposition was detected
same,Complex stability against apo-transferrin (in words),human apo-transferrin; listed as 67Ga(dedpa)^+,fully intact
same,Complex stability against apo-transferrin (in words),human apo-transferrin; listed as Ga(dedpa)^+,no decomposition was detected
